This passage reports Emax, EC50 and melting point results from patent US20060106106A1, “Beta-hydroxyphenylalkylamines and their use for treating glaucoma” (priority 2002, published 2006).

Structures can show the parent of a compound that is named as a salt.

Broadly, the Emax is the size of the effect at its maximum, as opposed to the concentration needed. One may read the EC50 as the concentration that produces a half-maximal response. Usually melting point stands for the temperature, or range, at which the solid turns liquid.

Series [1] has as its target T1, 5-HT2A (Rattus norvegicus, UniProt P14842).
T1 construct: [^3H]myo-inositol-labeled A7r5 rat vascular smooth muscle cells; endogenous in cells; host or cells: A7r5 rat vascular smooth muscle cells
In words: 5-HT2 Functional Assay: [Ca2+]i Mobilization (FLIPR) in A7r5 cells. The class given is cell-based. The following applies: for Emax: A7r5 cells, FLIPR, percentage of maximum 5-HT-induced response, read-out: 5-HT2A % Emax (Ca+2 Assay). How it is done:
5-HT2 Functional Assay: [Ca^2+]i Mobilization
The receptor-mediated mobilization on intracellular calcium ([Ca^2+]i) was studied using the Fluorescence Imaging Plate Reader (FLIPR) instrument. Rat vascular smooth muscle cells, A7r5, were grown in a normal media of DMEM/10% FBS and 10 μg/mL gentamycin. Confluent cell monolayers were trypsinized, pelleted, and re-suspended in normal media. Cells were seeded in a 50 μL volume at a density of 20,000 cells/well in a black wall, 96-well tissue culture plate and grown for 2 days.
On the day of the experiment, one vial of FLIPR Calcium Assay Kit dye was re-suspended in 50 mL of a FLIPR buffer consisting of Hank's Balanced Salt Solution (HBSS), 20 mM HEPES, and 2.5 mM probenecid, pH 7.4. Cells were loaded with the calcium-sensitive dye by addition of an equal volume (50 μL) to each well of the 96-well plate and incubated with dye for 1 h at 23° C.
Compounds were diluted 1:50 in 20% DMSO/20% Ethanol. For “hit” screening, compounds were further diluted 1:10 in FLIPR buffer and tested at a final concentration of 10 μM.
The compound plate and cell plate were placed in the FLIPR instrument. At the beginning of an experimental run, a signal test was performed to check the basal fluorescence signal from the dye-loaded cells and the uniformity of the signal across the plate. The basal fluorescence was adjusted between 8000-12000 counts by modifying the exposure time, the camera F-stop, or the laser power. Instrument settings for a typical assay were the following: laser power 0.3-0.6 W, camera F-stop F/2, and exposure time 0.4 sec. An aliquot (25 μL) of the test compound was added to the existing 100 μL dye-loaded cells at a dispensing speed of 50 μL/sec. Fluorescence data were collected in real-time at 1.0 sec intervals for the first 60 secs and at 6.0 sec intervals for an additional 120 secs. Responses were measured as peak fluorescence intensity minus basal and where appropriate were expressed as a percentage of a maximum 5-HT-induced response.

In series [2] the target is T1, 5-HT2A. In words: 5-HT2 Functional Assay: Phosphoinositide (PI) Turnover Assay in A7r5 cells. Format: cell-based. The following applies: for Emax: A7r5 cells, relative to 5-HT (set at 100%). How it is done: 5-HT2 Functional Assay: Phosphoinositide (PI) Turnover Assay
The relative agonist activity of serotonergic compounds at the 5-HT2 receptor can be determined in vitro using the ability of the compounds to stimulate the production of [^3H]inositol phosphates in [^3H]myo-inositol-labeled A7r5 rat vascular smooth muscle cells by their ability to activate the enzyme phospholipase C. These cells are grown in culture plates, maintained in a humidified atmosphere of 5% CO2 and 95% air and fed semi-weekly with Dulbecco's modified Eagle medium (DMEM) containing 4.5 g/L glucose and supplemented with 2 mM glutamine, 10 μg/ml gentamicin, and 10% fetal bovine serum. For the purpose of conducting the phosphoinositide (PI) turnover experiments, the A7r5 cells are cultured in 24-well plates as previously [J. Pharmacol. Expt. Ther. 286, 411 (1998)]. Confluent cells are exposed for 24-30 hrs to 1.5 μCi [^3H]-myo-inositol (18.3 Ci/mmol) in 0.5 ml of serum-free medium. Cells are then rinsed once with DMEM/F-12 containing 10 mM LiCl prior to incubation with the test agent (or solvent as the control) in 1.0 mL of the same medium for 1 hr at 37° C., after which the medium is aspirated and 1 ml of cold 0.1 M formic acid added to stop the reaction. The chromatographic separation of [^3H]-inositol phosphates ([^3H]-IPs) on an AG-1-X8 column is performed as previously described [J. Pharmacol. Expt. Ther. 286, 411 (1998)] with sequential washes with H2O and 50 mM ammonium formate, followed by elution of the total [^3H]-IPs fraction with 1.2 M ammonium formate containing 0.1 M formic acid. The eluate (4 mL) is collected, mixed with 15 ml scintillation fluid, and the total [^3H]-IPs determined by scintillation counting on a beta-counter. Concentration-response data are analyzed by the sigmoidal fit function of the Origin Scientific Graphics software (Microcal Software, Northampton, Mass.) to determine agonist potency (EC50 value) and efficacy (Emax). Serotonin (5-HT) is used as a positive control (standard) agonist compound and the efficacy of test compounds is compared to that of 5-HT (set at 100%).

T1 sequence (P14842 whole entry): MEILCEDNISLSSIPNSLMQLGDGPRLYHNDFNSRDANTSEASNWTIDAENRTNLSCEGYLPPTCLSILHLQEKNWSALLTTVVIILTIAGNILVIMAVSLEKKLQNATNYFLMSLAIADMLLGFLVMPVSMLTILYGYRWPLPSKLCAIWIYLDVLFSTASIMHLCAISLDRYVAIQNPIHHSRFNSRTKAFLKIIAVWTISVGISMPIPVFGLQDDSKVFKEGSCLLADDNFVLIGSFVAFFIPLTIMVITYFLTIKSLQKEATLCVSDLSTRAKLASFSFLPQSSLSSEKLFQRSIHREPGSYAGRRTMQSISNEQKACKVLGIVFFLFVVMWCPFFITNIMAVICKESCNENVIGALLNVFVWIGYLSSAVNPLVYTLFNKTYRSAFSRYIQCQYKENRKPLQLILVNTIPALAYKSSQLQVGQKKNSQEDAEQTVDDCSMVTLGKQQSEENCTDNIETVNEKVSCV

With `CC[C@H](N)[C@H](O)c1cc(OC)c(Br)cc1OC` [Compound 7, (−)-erythro-(1R,2S)-1-Hydroxy-1-(4-bromo-2,5-dimethoxyphenyl)-2-aminobutane Oxalate, reference compound], the Emax at 5-HT2A [1] amounted to 4.8%.
In turn, `COc1cc([C@H](O)[C@@H](C)N)c(OC)cc1Br` [Compound 8, (+)-erythro-(1S,2R)-1-Hydroxy-1-(4-bromo-2,5-dimethoxyphenyl)-2-aminopropane Hydrochloride] returned an EC50 at 5-HT2A [2] of 8000 nM. In addition, the results for the Emax on 5-HT2A [2] and on 5-HT2A [1] were 57% and 20%, respectively.
Turning to `COc1cc(C(O)CN)c(OC)cc1CCCc1ccccc1` (racemic) (as salt: hydrochloride) [Compound 5, (±)1-Hydroxy-1-[4-(3-phenylpropyl)-2,5-dimethoxyphenyl]-2-aminoethane Hydrochloride], the melting point was in the range of 174 to 176 °C.
At 5-HT2A [2], `COc1cc([C@@H](O)[C@H](C)N)c(OC)cc1Br` [Compound 9, (−)-erythro-(1R,2S)-1-Hydroxy-1-(4-bromo-2,5-dimethoxyphenyl)-2-aminopropane Hydro-chloride] registered an EC50 of 1180 nM and an Emax of 68%. Besides, on 5-HT2A [1], the midpoint of the response, the EC50, lay at 84 nM and the Emax was determined as 22%.
As for `COc1ccc(OC)c(C(O)C(C)N)c1` (stereo not shown) [Compound 1, reference compound], on 5-HT2A [1], the Emax stood at 9%.
As to `CC[C@H](N)[C@H](O)c1cc(OC)c(Br)cc1OC` (as salt: oxalate) [Compound 7, (−)-erythro-(1R,2S)-1-Hydroxy-1-(4-bromo-2,5-dimethoxyphenyl)-2-aminobutane Oxalate], the melting point lay within 203 to 205 °C.
With `COc1cc(C(O)CN)c(OC)cc1Br` (stereo not shown) [Compound 6, reference compound], on 5-HT2A [1], the Emax is 7.8%.
On to `COc1cc([C@@H](O)[C@@H](C)N)c(OC)cc1Br` (as salt: hydrochloride) [Compound 11, (−)-threo-(1R,2R)-1-Hydroxy-1-(4-bromo-2,5-dimethoxyphenyl)-2-aminopropane Hydrochloride], for which the melting point lay within 214 to 215 °C.
Same read-out and setting: next, `COc1cc([C@H](O)[C@@H](C)N)c(OC)cc1Br` (as salt: hydrochloride) [Compound 8, (+)-erythro-(1S,2R)-1-Hydroxy-1-(4-bromo-2,5-dimethoxyphenyl)-2-aminopropane Hydrochloride]: 194 to 196 °C.
For `COc1cc([C@H](OC)[C@@H](C)N)c(OC)cc1Br` [Compound 13, (+)-erythro-(1S,2R)-1-Methoxy-1-(4-bromo-2,5-dimethoxyphenyl)-2-aminopropane Oxalate], the EC50 on 5-HT2A [2] is 4610 nM; at 5-HT2A [1], 5040 nM. Moreover, the Emax at 5-HT2A [2] came to 117%; at 5-HT2A [1] it was 49%.
As to `COc1cc(C(O)CN)c(OC)cc1CCCc1ccccc1` (racemic) [Compound 5, (±)1-Hydroxy-1-[4-(3-phenylpropyl)-2,5-dimethoxyphenyl]-2-aminoethane Hydrochloride, reference compound], the Emax at 5-HT2A [1] amounted to 3.1%.
In the case of `COc1cc([C@@H](O)[C@@H](C)N)c(OC)cc1Br` [Compound 11, (−)-threo-(1R,2R)-1-Hydroxy-1-(4-bromo-2,5-dimethoxyphenyl)-2-aminopropane Hydrochloride], the figures for the EC50 at 5-HT2A [2] and on 5-HT2A [1] were 1130 nM and 96.9 nM, respectively. For the same compound, the Emax on 5-HT2A [2] turned out to be 102%; at 5-HT2A [1], 54%.
Regarding `COc1cc(C(OC)C(C)N)c(OC)cc1Br` (single isomer, unassigned; (+)) [Compound 15], at 5-HT2A [1], the EC50 is 1410 nM and the Emax was determined as 31%.
In the case of `COc1cc([C@@H](OC)[C@@H](C)N)c(OC)cc1Br` [Compound 14, (−)-thero-(1R,2R)-1-Methoxy-1-(4-bromo-2,5-dimethoxyphenyl)-2-aminopropane Oxalate], the EC50 was 42.4 nM at 5-HT2A [2] and 126 nM on 5-HT2A [1]. Also, the Emax at 5-HT2A [2] came to 111%; on 5-HT2A [1], 93%.
Compound `COc1cc(C(O)C(C)N)c(OC)cc1Br` (single isomer, unassigned; (+)) (as salt: hydrochloride) [Compound 10] gave a melting point of 213 to 214 °C.
Turning to `COc1cc([C@@H](OC)[C@H](C)N)c(OC)cc1Br` (as salt: oxalate) [Compound 12, (−)-erythro-(1R,2S)-1-Methoxy-1-(4-bromo-2,5-dimethoxyphenyl)-2-aminopropane Oxalate], the melting point fell in the range of 186 to 188 °C.
On to `COc1cc(C(O)C(C)N)c(OC)cc1Br` (single isomer, unassigned; (+)) [Compound 10, Hydrochloride], for which the Emax on 5-HT2A [2] turned out to be 47%; at 5-HT2A [1], 16%.
On 5-HT2A [2], `COc1cc([C@@H](OC)[C@H](C)N)c(OC)cc1Br` [Compound 12, (−)-erythro-(1R,2S)-1-Methoxy-1-(4-bromo-2,5-dimethoxyphenyl)-2-aminopropane Oxalate] had an EC50 of 1080 nM and an Emax of 100%. For the same compound, on 5-HT2A [1], the EC50 is 1330 nM and the Emax amounted to 54%.
